Results reported in patent publication US7691875B2, “Imidazopyridine compounds, processes for their preparation and therapeutic uses thereof” (AstraZeneca AB, priority 2003, dated 2010).
Values after ≈ are worked out from the molar mass of the structure shown.

Columns and labels:
[1] = Solubility in Fasted State Simulated Intestinal Fluid (FaSSIF); format: physicochemical; settings: thermodynamic from solid, FaSSIF pH 6.5, 37° C., measured after 24 hours
Description: Solubility in Fasted State Simulated Intestinal Fluid (FaSSIF)
The method describes a procedure to measure solubility of solid material in PaSSIF (Fasted State Simulated Intestinal Fluid). The FaSSIF solution is an isotonic phosphate buffer where pH is adjusted to 6.5 to reflect pH in the jejunum. Taurocholic acid and lecithin is added to a concentration of 3 mmol/l and 0.75 mmol/l respectively.
1 mg of solid material, i.e. of the compound of invention, is added to 1 ml FaSSIF solution and equilibrated at 37° C. Samples are withdrawn after 1 and 24 hours. The samples are transferred to eppendorf tubes and spun at 10000 G and 37° C. for 10 minutes. A suitable volume of the supernatant is removed and diluted to a suitable concentration. The concentrations of the compounds in the samples are analysed with LC/UV/MS.

H+,K+-ATPase = H+,K+-ATPase (Homo sapiens, UniProt P20648); experiment: Determination of H+,K+-ATPase activity (membrane vesicles, phosphate release); format: biochemical; settings: 15 min, 37° C., pH 7.4, 10 mM KCl, 2 mM ATP
H+,K+-ATPase, sequence (P20648 whole entry): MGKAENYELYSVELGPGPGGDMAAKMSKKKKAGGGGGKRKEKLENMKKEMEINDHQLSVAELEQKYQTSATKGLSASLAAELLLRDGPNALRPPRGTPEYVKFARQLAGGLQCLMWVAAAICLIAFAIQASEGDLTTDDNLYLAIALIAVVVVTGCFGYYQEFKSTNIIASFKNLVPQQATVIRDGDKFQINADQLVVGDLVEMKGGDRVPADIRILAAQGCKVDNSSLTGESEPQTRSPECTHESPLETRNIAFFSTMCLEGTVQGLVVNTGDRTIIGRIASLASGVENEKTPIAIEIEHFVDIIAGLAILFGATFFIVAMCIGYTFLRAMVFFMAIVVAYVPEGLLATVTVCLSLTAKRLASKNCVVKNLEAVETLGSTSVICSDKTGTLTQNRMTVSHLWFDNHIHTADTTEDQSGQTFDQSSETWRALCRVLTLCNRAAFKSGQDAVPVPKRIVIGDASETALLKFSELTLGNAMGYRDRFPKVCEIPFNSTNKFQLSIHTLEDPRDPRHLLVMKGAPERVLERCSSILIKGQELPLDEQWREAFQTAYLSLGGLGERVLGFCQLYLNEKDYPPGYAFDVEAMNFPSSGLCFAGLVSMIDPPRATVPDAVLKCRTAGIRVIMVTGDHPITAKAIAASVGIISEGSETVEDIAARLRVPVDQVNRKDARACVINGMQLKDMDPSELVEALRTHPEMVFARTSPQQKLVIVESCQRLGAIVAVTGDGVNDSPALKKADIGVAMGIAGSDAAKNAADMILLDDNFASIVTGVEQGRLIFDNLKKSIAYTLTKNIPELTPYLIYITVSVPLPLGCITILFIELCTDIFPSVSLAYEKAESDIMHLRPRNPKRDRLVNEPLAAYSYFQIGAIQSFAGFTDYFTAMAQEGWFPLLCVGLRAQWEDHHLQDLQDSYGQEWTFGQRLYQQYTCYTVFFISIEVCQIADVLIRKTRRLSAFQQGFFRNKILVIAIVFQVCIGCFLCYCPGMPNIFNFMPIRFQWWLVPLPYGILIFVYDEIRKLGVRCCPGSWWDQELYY
H+,K+-ATPase, sequence (P51164 whole entry partner): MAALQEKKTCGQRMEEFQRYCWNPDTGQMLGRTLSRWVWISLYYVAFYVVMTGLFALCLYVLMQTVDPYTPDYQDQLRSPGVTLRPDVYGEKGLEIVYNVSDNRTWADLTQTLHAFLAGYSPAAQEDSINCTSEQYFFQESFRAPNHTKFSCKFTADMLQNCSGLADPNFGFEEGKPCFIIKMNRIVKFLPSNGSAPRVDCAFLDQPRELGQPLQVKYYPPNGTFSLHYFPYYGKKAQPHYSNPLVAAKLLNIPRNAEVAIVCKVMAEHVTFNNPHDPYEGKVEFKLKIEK
Description: Detennination of H^+,K^+-ATPase Activity
Membrane vesicles (2.5 to 5 μg) were incubated for 15 min at +37° C. in 18 mM Pipes/Tris buffer pH 7.4 containing 2 mM MgCl2, 10 mM KCl and 2 mM ATP. The ATPase activity was estimated as release of inorganic phosphate from ATP, as described by LeBel et al. (1978) Anal. Biochem. 85, 86-89.

[2] = Bioavailability in the conscious dog; format: in vivo; settings: plasma
Description: Bioavailabiity is assessed by calculating the quotient between the area under blood/plasma concentration (AUC) curve following (i) intraduodenal (i.d.) or oral (p.o.) administration and (ii) intravenous (i.v.) administration from the rat or the dog, respectively.
The area under the blood concentration vs. time curve, AUC, is determined by the log/linear trapezoidal rule and extrapolated to infinity by dividing the last determined blood concentration by the elimination rate constant in the terminal phase. The systemic bioavailability (F%) following intraduodenal or oral administration is calculated as F(%)=(AUC (p.o. or i.d.)/AUC (i.v.))×100.
(§1) Inhibition of Gastric Acid Secretion and Bioavailability in the Conscious Dog.
Blood samples for the analysis of test compound concentration in plasma are taken at intervals up to 4 h after dosing. Plasma is separated and frozen within 30 min after collection and later analyzed. The systemic bioavailability (F%) after oral or i.d. administration is calculated as described above in the rat model.

[3] = test system: isolated rabbit gastric glands; experiment: Acid secretion inhibition in isolated rabbit gastric glands; format: cell-based; settings: Oryctolagus cuniculus, in vitro
Description: Acid Secretion Inhibition in Isolated Rabbit Gastric Glands
Inhibiting effect on acid secretion in vitro in isolated rabbit gastric glands was measured as
described by Berglindh et al. (1976) Acta Physiol. Scand. 97, 401-414.

[4] = test system: histamine-stimulated acid secretion; experiment: Inhibition of histamine-stimulated gastric acid secretion in the conscious Heidenhain pouch dog; format: in vivo; settings: 1-3 hours after dosing, mean n=2
Description: as §1
Labrador retriever or Harrier dogs of either sex are used. They are equipped with a duodenal fistula for the administration of test compounds or vehicle and a cannulated gastric fistula or a Heidenhaim-pouch for the collection of gastric secretion.
Before secretory tests the animals are fasted for about 18 h but water is freely allowed. Gastric acid secretion is stimulated for up to 6.5 h infusion of histamine dihydrochloride (12 ml/h) at a dose producing about 80 % of the individual maximal secretory response, and gastric juice collected in consecutive 30-min fractions. Test substance or vehicle is given orally, i.d. or i.v., 1 or 1.5 h after starting the histamine infusion, in a volume of 0.5 ml/kg body weight. In the case of oral administration, it should be pointed out that the test compound is administered to the acid secreting main stomach of the Heidenham-pouch dog.
The acidity of the gastric juice samples are determined by titration to pH 7.0, and the acid output calculated. The acid output in the collection periods after administration of test substance or vehicle are expressed as fractional responses, setting the acid output in the fraction preceding administration to 1.0. Percentage inhibition is calculated from fractional responses elicited by test compound and vehicle.

| Compound | solubility at 24 h [1] | IC50 (H+,K+-ATPase) | bioavailability [2] | IC50 [3] | mean percentage inhibition of histamine-stimulated acid secretion [4] |
| --- | --- | --- | --- | --- | --- |
| CS(=O)(=O)O.Cc1cccc(C)c1CNc1cc(C(=O)NC[C@H](C)O)cn2c(C)c(C)nc12 [8-[(2,6-dimethylbenyl)amino]-N-[(2S)-2-hydroxypropyl]-2,3-dimethylimidazo[1,2-a]pyridine-6-carboxamide mesylate salt] | 218 µM | – | – | – | – |
| Cc1cccc(C)c1CNc1cc(C(=O)NCCO)cn2c(C)c(C)nc12 [8-[(2,6-dimethylbenzyl)amino]-N-(2-hydroxyethyl)-2,3-dimethylimidazo[1,2-a]pyridine-6-carboxamide, reference compound] | – | 750 nM | 61% | 280 nM | – |
| Cc1cccc(C)c1CNc1cc(C(=O)NC[C@H](C)O)cn2c(C)c(C)nc12 [compound of the invention, 8-[(2,6-dimethylbenzyl)amino]-N-[(2S)-2-hydroxypropyl]-2,3-dimethylimidazo[1,2-a]pyridine-6-carboxamide] | 48 µM (≈ 18.3 µg/mL) | 690 nM | – | 260 nM | 91% |
